In PubChem BioAssay AID1919015 (Molecular Pharmacology Branch, DTP, NCI, 2023):
Where “and” joins values, the source holds several entries; their conditions need not be identical. Identical values can stand only once.

System: OVCAR-5 complex spheroids with HUVEC/MSC, viability, % test/control
Assay: Anticancer human tumor OVCAR-5 cell line growth inhibition [AhR];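 note: spheroids exposed to compounds for 7 days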;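 for viability, T/C: 100% = DMSO vehicle control wells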
Details: for viability, T/C: stronger effect = lower value
In short: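 Spheroids combined tumor cells with HUVEC endothelial cells and human MSCs as stroma. AhR antagonists were paired with standard or investigational drugs, each dosed in half-log steps down from near clinical Cmax, or from 10 microM where Cmax was unknown.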

[1] = curve of first compound, second compound 0.1 µM
[2] = curve of first compound, second compound 0.316 µM
[3] = curve of first compound, second compound 1 µM
[4] = curve of first compound, second compound 3.16 µM
[5] = curve of first compound, second compound 10 µM
[6] = second compound 0.1 µM, first compound 0.0316 µM
[7] = second compound 0.1 µM, first compound 0.1 µM
[8] = second compound 0.1 µM, first compound 0.316 µM
[9] = second compound 0.1 µM, first compound 1 µM
[10] = second compound 0.1 µM, first compound 3.16 µM
[11] = second compound 0.1 µM, first compound 10 µM
[12] = second compound 0.316 µM, first compound 0.0316 µM
[13] = second compound 0.316 µM, first compound 0.1 µM
[14] = second compound 0.316 µM, first compound 0.316 µM
[15] = second compound 0.316 µM, first compound 1 µM
[16] = second compound 0.316 µM, first compound 3.16 µM
[17] = second compound 0.316 µM, first compound 10 µM
[18] = second compound 1 µM, first compound 0.0316 µM
[19] = second compound 1 µM, first compound 0.1 µM
[20] = second compound 1 µM, first compound 0.316 µM
[21] = second compound 1 µM, first compound 1 µM
[22] = second compound 1 µM, first compound 3.16 µM
[23] = second compound 1 µM, first compound 10 µM
[24] = second compound 3.16 µM, first compound 0.0316 µM
[25] = second compound 3.16 µM, first compound 0.1 µM
[26] = second compound 3.16 µM, first compound 0.316 µM
[27] = second compound 3.16 µM, first compound 1 µM
[28] = second compound 3.16 µM, first compound 3.16 µM
[29] = second compound 3.16 µM, first compound 10 µM
[30] = second compound 10 µM, first compound 0.0316 µM
[31] = second compound 10 µM, first compound 0.1 µM
[32] = second compound 10 µM, first compound 0.316 µM
[33] = second compound 10 µM, first compound 1 µM
[34] = second compound 10 µM, first compound 3.16 µM
[35] = second compound 10 µM, first compound 10 µM
[36] = second compound 0.1 µM, first compound 0.00949 µM
[37] = second compound 0.1 µM, first compound 0.03 µM
[38] = second compound 0.1 µM, first compound 0.0949 µM
[39] = second compound 0.1 µM, first compound 0.3 µM
[40] = second compound 0.1 µM, first compound 0.949 µM
[41] = second compound 0.1 µM, first compound 3 µM
[42] = second compound 0.316 µM, first compound 0.00949 µM
[43] = second compound 0.316 µM, first compound 0.03 µM
[44] = second compound 0.316 µM, first compound 0.0949 µM
[45] = second compound 0.316 µM, first compound 0.3 µM
[46] = second compound 0.316 µM, first compound 0.949 µM
[47] = second compound 0.316 µM, first compound 3 µM
[48] = second compound 1 µM, first compound 0.00949 µM
[49] = second compound 1 µM, first compound 0.03 µM
[50] = second compound 1 µM, first compound 0.0949 µM
[51] = second compound 1 µM, first compound 0.3 µM
[52] = second compound 1 µM, first compound 0.949 µM
[53] = second compound 1 µM, first compound 3 µM
[54] = second compound 3.16 µM, first compound 0.00949 µM
[55] = second compound 3.16 µM, first compound 0.03 µM
[56] = second compound 3.16 µM, first compound 0.0949 µM
[57] = second compound 3.16 µM, first compound 0.3 µM
[58] = second compound 3.16 µM, first compound 0.949 µM
[59] = second compound 3.16 µM, first compound 3 µM
[60] = second compound 10 µM, first compound 0.00949 µM
[61] = second compound 10 µM, first compound 0.03 µM
[62] = second compound 10 µM, first compound 0.0949 µM
[63] = second compound 10 µM, first compound 0.3 µM
[64] = second compound 10 µM, first compound 0.949 µM
[65] = second compound 10 µM, first compound 3 µM

Compound: COc1cc(Nc2ncc3c(n2)-c2ccc(Cl)cc2C(c2c(F)cccc2OC)=NC3)ccc1C(=O)O + Cc1ccccc1N=Nc1ccc(NC(=O)c2ccnn2C)c(C)c1
- IC50 [1]: 2340 nM
- IC50 [2]: 2970 nM
- IC50 [3]: 4990 nM
- IC50 [4]: 6140 nM
- IC50 [5]: 6340 nM
- viability, T/C [6]: 89.5%
- viability, T/C [7]: 81.7%
- viability, T/C [8]: 60.2%
- viability, T/C [9]: 57.2%
- viability, T/C [10]: 50.3%
- viability, T/C [11]: 42%
- viability, T/C [12]: 89.4%
- viability, T/C [13]: 86.8%
- viability, T/C [14]: 64.2%
- viability, T/C [15]: 59.5%
- viability, T/C [16]: 52.3%
- viability, T/C [17]: 41.7%
- viability, T/C [18]: 91.2%
- viability, T/C [19]: 87.8%
- viability, T/C [20]: 68.5%
- viability, T/C [21]: 64.4%
- viability, T/C [22]: 55.4%
- viability, T/C [23]: 43.7%
- viability, T/C [24]: 97.6%
- viability, T/C [25]: 91.3%
- viability, T/C [26]: 74.8%
- viability, T/C [27]: 68.1%
- viability, T/C [28]: 54.5%
- viability, T/C [29]: 46.2%
- viability, T/C [30]: 93.3%
- viability, T/C [31]: 86.4%
- viability, T/C [32]: 74.2%
- viability, T/C [33]: 67.2%
- viability, T/C [34]: 54.7%
- viability, T/C [35]: 46.6%

Compound: O=C(C=Cn1cnc(-c2cc(C(F)(F)F)cc(C(F)(F)F)c2)n1)NNc1cnccn1 + CC(CO)NC(=O)c1cc(-c2ccc(Cl)cc2)nn(-c2cnn(C)c2)c1=O
- IC50 [1]: 1900 nM
- IC50 [2]: 2180 nM
- IC50 [3]: 2680 nM
- IC50 [4]: 2020 nM
- IC50 [5]: 1670 nM
- viability, T/C [36]: 109%
- viability, T/C [37]: 113%
- viability, T/C [38]: 101%
- viability, T/C [39]: 86.7%
- viability, T/C [40]: 66.4%
- viability, T/C [41]: 39.6%
- viability, T/C [42]: 110%
- viability, T/C [43]: 110%
- viability, T/C [44]: 104%
- viability, T/C [45]: 86%
- viability, T/C [46]: 64%
- viability, T/C [47]: 44.7%
- viability, T/C [48]: 113%
- viability, T/C [49]: 114%
- viability, T/C [50]: 111%
- viability, T/C [51]: 90.1%
- viability, T/C [52]: 70.2%
- viability, T/C [53]: 47.5%
- viability, T/C [54]: 101%
- viability, T/C [55]: 112%
- viability, T/C [56]: 103%
- viability, T/C [57]: 87.5%
- viability, T/C [58]: 69.7%
- viability, T/C [59]: 40.1%
- viability, T/C [60]: 97%
- viability, T/C [61]: 98.2%
- viability, T/C [62]: 97.6%
- viability, T/C [63]: 83.3%
- viability, T/C [64]: 65.8%
- viability, T/C [65]: 34.2%

Compound: O=C(C=Cn1cnc(-c2cc(C(F)(F)F)cc(C(F)(F)F)c2)n1)NNc1cnccn1 + Cc1ccccc1N=Nc1ccc(NC(=O)c2ccnn2C)c(C)c1
- IC50 [1]: 1750 nM
- IC50 [2]: 2350 nM
- IC50 [3]: 2830 nM
- IC50 [4]: 2120 nM
- IC50 [5]: 1640 nM
- viability, T/C [36]: 109%
- viability, T/C [37]: 113%
- viability, T/C [38]: 102%
- viability, T/C [39]: 83.4%
- viability, T/C [40]: 59.2%
- viability, T/C [41]: 42.2%
- viability, T/C [42]: 115%
- viability, T/C [43]: 109%
- viability, T/C [44]: 100%
- viability, T/C [45]: 82.4%
- viability, T/C [46]: 59.6%
- viability, T/C [47]: 47.5%
- viability, T/C [48]: 114%
- viability, T/C [49]: 116%
- viability, T/C [50]: 106%
- viability, T/C [51]: 90%
- viability, T/C [52]: 64.6%
- viability, T/C [53]: 49.2%
- viability, T/C [54]: 114%
- viability, T/C [55]: 118%
- viability, T/C [56]: 113%
- viability, T/C [57]: 90.8%
- viability, T/C [58]: 66.7%
- viability, T/C [59]: 43%
- viability, T/C [60]: 108%
- viability, T/C [61]: 111%
- viability, T/C [62]: 108%
- viability, T/C [63]: 89.3%
- viability, T/C [64]: 63%
- viability, T/C [65]: 36.4%

Compound: CC1(C)CCC(CN2CCN(c3ccc(C(=O)NS(=O)(=O)c4ccc(NCC5CCOCC5)c([N+](=O)[O-])c4)c(Oc4cnc5[nH]ccc5c4)c3)CC2)=C(c2ccc(Cl)cc2)C1 + CC(CO)NC(=O)c1cc(-c2ccc(Cl)cc2)nn(-c2cnn(C)c2)c1=O
- IC50 [1]: > 10000 nM
- IC50 [2]: > 10000 nM
- IC50 [3]: > 10000 nM
- IC50 [4]: > 10000 nM
- IC50 [5]: > 10000 nM
- viability, T/C [6]: 107%
- viability, T/C [7]: 107%
- viability, T/C [8]: 109%
- viability, T/C [9]: 113%
- viability, T/C [10]: 118%
- viability, T/C [11]: 51.4%
- viability, T/C [12]: 111%
- viability, T/C [13]: 107%
- viability, T/C [14]: 113%
- viability, T/C [15]: 114%
- viability, T/C [16]: 118%
- viability, T/C [17]: 50.6%
- viability, T/C [18]: 115%
- viability, T/C [19]: 116%
- viability, T/C [20]: 122%
- viability, T/C [21]: 120%
- viability, T/C [22]: 122%
- viability, T/C [23]: 53.8%
- viability, T/C [24]: 102%
- viability, T/C [25]: 106%
- viability, T/C [26]: 104%
- viability, T/C [27]: 111%
- viability, T/C [28]: 114%
- viability, T/C [29]: 53.8%
- viability, T/C [30]: 100%
- viability, T/C [31]: 102%
- viability, T/C [32]: 104%
- viability, T/C [33]: 104%
- viability, T/C [34]: 106%
- viability, T/C [35]: 57.6%

Compound: COc1cc(Nc2ncc3c(n2)-c2ccc(Cl)cc2C(c2c(F)cccc2OC)=NC3)ccc1C(=O)O
- viability, T/C (compound 0.0316 µM): 88% and 84.9% and 84.8%
- viability, T/C (compound 0.1 µM): 79.3% and 80.2% and 76.8%
- viability, T/C (compound 0.316 µM): 61.4% and 57.7% and 55.4%
- viability, T/C (compound 1 µM): 58.3% and 55.7% and 50.5%
- viability, T/C (compound 3.16 µM): 51.2% and 49.3% and 47%
- viability, T/C (compound 10 µM): 42.7% and 41.6% and 39.5%
- IC50 (curve of compound): 2920 nM and 1770 nM and 1250 nM
